# Assay results reported in US20250034182A1, “PHOSPHOLIPID COMPOUNDS AND METHODS OF MAKING AND USING THE SAME” (priority 2021, published 2025).
# Columns and labels:
# Assay type in all cases: cell-based
# in vitro = conditions: human
# Method: (§1) Huh7 hepatoblastoma cells were seeded onto 96-well plates and incubated at 37° C. with 5% CO2 overnight. The plates were seeded at a cell concentration that will yield >70% confluent monolayers in each well after overnight incubation. Eight 3-fold serial dilutions of compounds were diluted in test media (MEM supplemented with 2% FBS and 50 μg/mL gentamicin). The highest test compound concentration was 50 μg/mL. 100 μL of each concentration was added to 5 test wells on the 96-well plate. Of these 5 test wells, 3 wells of each dilution were infected with dengue virus type 2, diluted in test media (approximately 2000 CCID50 per well for an MOI of 0.07). Test medium (100 μL) with no virus was added to 2 wells to represent the uninfected cytotoxicity controls. Six additional infected wells received 100 μL media alone as untreated virus controls. Further, 100 μL of media alone was added to 6 uninfected wells to serve as uninfected, untreated controls. Cultures were incubated at 37° C.+5% CO2 until >80% CPE is observed. After cytopathic effect (CPE) is observed microscopically, 0.011% neutral red dye was added for approximately 2 hours. The neutral red dye was removed and wells were rinsed once with PBS to remove residual, unincorporated dye. A 50:50 Sorensen citrate buffer/ethanol solution was added and incubated at room temperature for >30 minutes with agitation, followed by measurement of neutral red dye using a spectrophotometer at 540 nm. The resulting optical density measurement was converted to percent signal of the infected, untreated cell control normalizing to virus controls. EC50 and CC50 values were determined by linear regression analysis.
# [1] = test system: Respiratory syncytial virus recombinant with luciferase (RSV-Luc5) in HEp-2 cells; assay: HEp-2 RSV-Luc5 384-well assay (EC50 RSVFLUC Hep2-384, Example R); conditions: human respiratory syncytial virus, HEp-2, 72 h, read-out: RSV Hep-2 FLuc EC50 (nM) (per Ex. R)
# Excerpt: HEp-2 cell line was purchased from ATCC (Manassas, VA Cat #CCL-23) and maintained in Dulbecco's […] (DMEM) (Corning, New York, NY, Cat #15-018CM) supplemented with 10% fetal bovine serum (FBS) (Hyclone, Logan, UT, Cat #SH30071-03) and 1× Penicillin-Streptornycin-L-Glutamine (Corning, New York, NY, Cat #30-009-CI). Cells were passaged 2 times per week to maintain sub-confluent densities and were used for experiments at passage 5-20. Respiratory syncytial virus recombinant with luciferase (RSV-Luc5) direct pelleted virus (≥1×107 TCID50/ml) was purchased from Microbiologics (Saint Cloud, MN). Viral replication was determined in HEp-2 cells in the following manner.
# Compounds are prepared in 384-well polypropylene plates (Greiner, Monroe, NC, Cat #784201) with 8 compounds per plate in grouped replicates of 4 at 10 serially diluted concentrations (1:3).
# HEp-2 cells were suspended in DMEM (supplemented with 10% FBS and 1×Penicillin-Streptonycin-L-Glutimine) and 60 μL of 4,000 cells per well were seeded into 384-well plates (Greiner, Monroe, NC, Cat #781080) using Biotek MultiFlo dispenser. After overnight incubation at 37° C. and 5% CO2, 0.4 uL of three-fold serial dilutions of compound was added to each well using a Biomek FX pipette station. RSV-Luc5 viruses were diluted in DMEM (supplemented with 10% FBS and 1× Penicillin-Streptonycin-L-Glutainie) at an MOI=0.5. Virus suspension was added to each 384-well compound plate at 20 uL per well using a Biotek MultiFlo dispenser. The assay plates were incubated for 3 days at 37° C. and 5% CO2. At the end of incubation, One-Glo reagent (Promega, Madison, WI, Cat #E6120) was prepared. The assay plate and the reagent were equilibrated to room temperature for 30 minutes. 50 uL per well of medium was removed from assay plate and 40 uL per well of One-Glo reagent was added to each plate by Biomek FX. The plates were sat at room temp for 15 minutes. Viral replication was then assessed by measuring luminescence signal using and Envision plate reader. Remdesivir was used as positive control and DMSO was used as negative control. Values were normalized to the positive and negative controls (as 0% and 100% replication, respectively) and data was fitted using non-linear regression analysis by Gilead's dose response tool. The EC50 value for each compound was then determined as the concentration reducing the viral replication by 50%.
# [2] = test system: Recombinant Respiratory Syncytial virus strain A2 containing the firefly luciferase reporter (RSV-Fluc) in NHBE cells; assay: RSV NHBE FLuc EC50 (Example I); conditions: human respiratory syncytial virus, 72 h, read-out: RSV NHBE FLuc EC50 (nM) (per Ex. I)
# Procedure, shortened: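 NHBE primary cells (passage 2-4) treated with threefold compound dilutions and infected with RSV A2 firefly-luciferase reporter virus at MOI 0.1; 3 days at 37° C, 5% CO2. ONE-Glo luminescence normalized to uninfected and infected DMSO controls; EC50 from non-linear regression, duplicates with two technical repeats.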
# [3] = test system: dengue virus type 2 in Huh7 hepatoblastoma cells; assay: Dengue Virus-2 Huh-7 EC50 (Example W); conditions: MOI of 0.07, CPE, neutral red dye, read-out: Dengue Virus-2 Huh-7 EC50 (nM) (per Ex. W)
# Method: as §1
Structure (SMILES),CC50 (in vitro) [nM],EC50 [1] [nM],EC50 [2] [nM],EC50 [3] [nM]
"CCCCCCCCCCCCCCCCCCC[C@H](COP(=O)(O)OC[C@@]1(C#N)O[C@@H](c2ccc3c(N)ncnn23)[C@H](O)[C@@H]1O)OCc1cc(F)cc(C#N)c1 [Compound 25, ((2R,3S,4R,5S)-5-(4-aminopyrrolo[2,1-f][1,2,4]triazin-7-yl)-2-cyano-3,4-dihydroxytetrahydrofuran-2-yl)methyl ((R)-2-((3-cyano-5-fluorobenzyl)oxy)henicosyl) hydrogen phosphate]",13000,291,98,9200
"CCCCCCCCCCCCCCCCCCOC[C@H](COP(=O)(O)OC[C@@]1(C#N)O[C@@H](c2ccc3c(N)ncnn23)[C@H](O)[C@@H]1O)Oc1cccc(C#N)n1 [Compound 21, ((2R,3S,4R,5S)-5-(4-aminopyrrolo[2,1-f][1,2,4]triazin-7-yl)-2-cyano-3,4-dihydroxytetrahydrofuran-2-yl)methyl ((R)-2-((6-cyanopyridin-2-yl)oxy)-3-(octadecyloxy)propyl) hydrogen phosphate]",–,136,41,–
"CCCCCCCCCCCCCCCCCCCC[C@H](COP(=O)(O)OC[C@@]1(C#N)O[C@@H](c2ccc3c(N)ncnn23)[C@H](O)[C@@H]1O)Oc1cccc(C#N)c1 [Compound 51, ((2R,3S,4R,5S)-5-(4-aminopyrrolo[2,1-f][1,2,4]triazin-7-yl)-2-cyano-3,4-dihydroxytetrahydrofuran-2-yl)methyl ((R)-2-(3-cyanophenoxy)docosyl) hydrogen phosphate]",21000,421,66,11000
"CCCCCCCCCCCCCCCCCOC[C@H](COP(=O)(O)OC[C@@]1(C#N)O[C@@H](c2ccc3c(N)ncnn23)[C@H](O)[C@@H]1O)OCc1cc(F)cc(C#N)c1 [Compound 53, ((2R,3S,4R,5S)-5-(4-aminopyrrolo[2,1-f][1,2,4]triazin-7-yl)-2-cyano-3,4-dihydroxytetrahydrofuran-2-yl)methyl ((R)-2-((3-cyano-5-fluorobenzyl)oxy)-3-(heptadecyloxy)propyl) hydrogen phosphate]",16000,113,69,9900
"CCCCCCCCCCCCCCCCCC[C@@H](COP(=O)(O)OC[C@@]1(C#N)O[C@@H](c2ccc3c(N)ncnn23)[C@H](O)[C@@H]1O)OCc1cc(F)cc(C#N)c1 [Compound 37, ((2R,3S,4R)-5-(4-aminopyrrolo[2,1-f][1,2,4]triazin-7-yl)-2-cyano-3,4-dihydroxytetrahydrofuran-2-yl)methyl ((S)-2-((3-cyano-5-fluorobenzyl)oxy)icosyl) hydrogen phosphate]",16000,304,276,11000
"CCCCCCCCCCCCCCCCCCOC[C@H](COP(=O)(O)OC[C@@]1(C#N)O[C@@H](c2ccc3c(N)ncnn23)[C@H](O)[C@@H]1O)OCc1cc(F)cc(C#N)c1 [Compound 1, ((2R,3S,4R,5S)-5-(4-aminopyrrolo[2,1-f][1,2,4]triazin-7-yl)-2-cyano-3,4-dihydroxytetrahydrofuran-2-yl)methyl ((R)-2-((3-cyano-5-fluorobenzyl)oxy)-3-(octadecyloxy)propyl) hydrogen phosphate]",18000,100,104,9700
"CCCCCCCCCCCCCCCCCCOC[C@H](COP(=O)(O)OC[C@@]1(C#N)O[C@@H](c2ccc3c(N)ncnn23)[C@H](O)[C@@H]1O)OCc1ccc(C#N)cc1OC [Compound 73, ((2R,3S,4R)-5-(4-aminopyrrolo[2,1-f][1,2,4]triazin-7-yl)-2-cyano-3,4-dihydroxytetrahydrofuran-2-yl)methyl ((R)-2-((4-cyano-2-methoxybenzyl)oxy)-3-(octadecyloxy)propyl) hydrogen phosphate]",19000,195,25,9500
"CCCCCCCCCCCCCCCCCCOC[C@H](COP(=O)(O)OC[C@@]1(C#N)O[C@@H](c2ccc3c(N)ncnn23)[C@H](O)[C@@H]1O)OCc1ccc(C#N)c(Cl)c1 [Compound 7, ((2R,3S,4R,5S)-5-(4-aminopyrrolo[2,1-f][1,2,4]triazin-7-yl)-2-cyano-3,4-dihydroxytetrahydrofuran-2-yl)methyl ((R)-2-((3-chloro-4-cyanobenzyl)oxy)-3-(octadecyloxy)propyl) hydrogen phosphate]",19000,84,113,8700
"CCCCCCCCCCCCCCCCCCOC[C@H](COP(=O)(O)OC[C@@]1(C#N)O[C@@H](c2ccc3c(N)ncnn23)[C@H](O)[C@@H]1O)OCc1cccc(C#N)n1 [Compound 68, ((2R,3S,4R)-5-(4-aminopyrrolo[2,1-f][1,2,4]triazin-7-yl)-2-cyano-3,4-dihydroxytetrahydrofuran-2-yl)methyl ((R)-2-((6-cyanopyridin-2-yl)methoxy)-3-(octadecyloxy)propyl) hydrogen phosphate]",–,118,36,–
"CCCCCCCCCCCCCCCCCCOC[C@H](COP(=O)(O)OC[C@@]1(C#N)O[C@@H](c2ccc3c(N)ncnn23)[C@H](O)[C@@H]1O)OCc1ccc(C#N)nc1 [Compound 19, ((2R,3S,4R,5S)-5-(4-aminopyrrolo[2,1-f][1,2,4]triazin-7-yl)-2-cyano-3,4-dihydroxytetrahydrofuran-2-yl)methyl ((R)-2-((6-cyanopyridin-3-yl)methoxy)-3-(octadecyloxy)propyl) hydrogen phosphate]",25000,48,98,6600
"CCCCCCCCCCCCCCOC[C@H](COP(=O)(O)OC[C@@]1(C#N)O[C@@H](c2ccc3c(N)ncnn23)[C@H](O)[C@@H]1O)OCc1ccc(C#N)cc1F [Compound 75, ((2R,3S,4R,5S)-5-(4-aminopyrrolo[2,1-f][1,2,4]triazin-7-yl)-2-cyano-3,4-dihydroxytetrahydrofuran-2-yl)methyl ((R)-2-((4-cyano-2-fluorobenzyl)oxy)-3-(tetradecyloxy)propyl) hydrogen phosphate]",> 50000,385,< 10.9,23000
"CCCCCCCCCCCCCCCCC[C@H](COP(=O)(O)OC[C@@]1(C#N)O[C@@H](c2ccc3c(N)ncnn23)[C@H](O)[C@@H]1O)OCc1cc(F)cc(C#N)c1 [Compound 36, ((2R,3S,4R,5S)-5-(4-aminopyrrolo[2,1-f][1,2,4]triazin-7-yl)-2-cyano-3,4-dihydroxytetrahydrofuran-2-yl)methyl ((R)-2-((3-cyano-5-fluorobenzyl)oxy)nonadecyl) hydrogen phosphate]",17000,155,121,10000
